From US8481553B2, “Antimetastatic compounds” (Brigham Young University, priority 2010, dated 2013)

These compounds were tested on MDCK cells (assay: HGF-induced epithelial-mesenchymal transition / migration of MDCK cells on transwell filters (crystal violet densitometry)). Settings: Canis lupus familiaris, MDCK; test compound 10 μM, then HGF, 24 hours; percentage value like the untreated controls (unstimulated cells = maximal effect, HGF treated cells without compound = nil effect).
Assay type: cell-based
Method: MDCK cells were seeded at confluency into the wells of a transwell filter in DMEM with 10% fetal bovine serum. Cells were cultured for 24 hours. Test compounds, dissolved in DMSO, were added to each test well to a 10 μM final concentration, and then hepatocyte growth factor (HGF) was then added. The MDCK cells were cultured for 24 hours. Concurrently, controls treated with and without HGF and with no test compounds were also prepared.
After post-HGF addition culturing, transwell filters were prepared by repeated washing using ice cold PBS. The cells were then fixed with paraformaldehyde (3.7%) on ice for 15 minutes to the filters. After fixation, the transwell filters were washed repeatedly with PBS followed by staining with crystal violet for 15 minutes. The transwell filters were washed again with distilled water.
The upper surface of the transwell filters were swabbed using a cotton-tipped probe. The filters were photographed using a gel documentation system. Densitometry measurements were made on the test samples and compared with control samples.

Compound | inhibition at 10 µM [%]
COc1cc(Cl)cc(/C=C/c2ccc3cccc(O)c3n2)c1OC [Compound B-28] | 100
COc1cc(/C=C/c2ccc3cccc(OC(C)=O)c3n2)ccc1O [Compound B-29] | 94.2
Oc1cccc2ccc(/C=C/c3ccc4c(c3)OCO4)nc12 [Compound B-30] | 94.4
CC(C)Oc1ccc(/C=C/c2ccc3cccc(O)c3n2)cc1 [Compound B-31] | 100
COc1cc(/C=C/c2ccc3cccc(O)c3n2)ccc1OCc1ccccc1 [Compound B-32] | 91.8
COc1ccc(/C=C/c2ccc3cccc(O)c3n2)cc1C [Compound B-33] | 90.7
COc1cccc(/C=C/c2ccc3cccc(O)c3n2)c1 [Compound B-34] | 51.8
COc1cc(/C=C/c2ccc3cccc(O)c3n2)cc(OC)c1OC [Compound B-35] | < 5
COc1cc(/C=C/c2ccc3cccc(O)c3n2)cc(OC)c1O [Compound B-36] | < 5
